Data taken from US20240158383A1, “RIBONUCLEOTIDE REDUCTASE (RNR) INHIBITORS AND USES THEREOF” (Boundless Bio, Inc., priority 2021, published 2024).

Legend:
[1] = system: pCHK1 (S345) in Colo320 DM cells; assay: CHK1 cellular activity (phospho-CHK1 AlphaLisa); type: cell-based, human; conditions: compound overnight (approximately 16 hours)
Outline: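 Colo320 DM cells (50,000/well, RPMI-1640 with 10% FBS) were treated with compound overnight (~16 h) at 37 °C, final DMSO <0.5%. Lysates were assayed for pCHK1 (S345) by AlphaLisa SureFire, a replication-stress marker downstream of RNR inhibition.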

[2] = biological target: RNR (RNR1:RNR2) (Homo sapiens (Human), UniProt P23921+P31350); assay: RNR enzyme activity, rapid-fire mass spectrometry (RFMS) assay; type: biochemical; conditions: [RNR] 50 nM, 1:1 RNR1:RNR2, [CDP] 5 μM, [ATP] 1 mM, 37° C., 45 min
Outline: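 RNR1:RNR2 (1:1, 50 nM final) was preincubated 15 min at room temperature with compound (10 nM–30 μM), then reacted 45 min at 37° C. with 5 μM CDP and 1 mM ATP, without NADPH. Reactions were stopped with 6% formic acid and read by RapidFire mass spectrometry.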

Sequence of RNR (RNR1:RNR2) (P23921 whole entry): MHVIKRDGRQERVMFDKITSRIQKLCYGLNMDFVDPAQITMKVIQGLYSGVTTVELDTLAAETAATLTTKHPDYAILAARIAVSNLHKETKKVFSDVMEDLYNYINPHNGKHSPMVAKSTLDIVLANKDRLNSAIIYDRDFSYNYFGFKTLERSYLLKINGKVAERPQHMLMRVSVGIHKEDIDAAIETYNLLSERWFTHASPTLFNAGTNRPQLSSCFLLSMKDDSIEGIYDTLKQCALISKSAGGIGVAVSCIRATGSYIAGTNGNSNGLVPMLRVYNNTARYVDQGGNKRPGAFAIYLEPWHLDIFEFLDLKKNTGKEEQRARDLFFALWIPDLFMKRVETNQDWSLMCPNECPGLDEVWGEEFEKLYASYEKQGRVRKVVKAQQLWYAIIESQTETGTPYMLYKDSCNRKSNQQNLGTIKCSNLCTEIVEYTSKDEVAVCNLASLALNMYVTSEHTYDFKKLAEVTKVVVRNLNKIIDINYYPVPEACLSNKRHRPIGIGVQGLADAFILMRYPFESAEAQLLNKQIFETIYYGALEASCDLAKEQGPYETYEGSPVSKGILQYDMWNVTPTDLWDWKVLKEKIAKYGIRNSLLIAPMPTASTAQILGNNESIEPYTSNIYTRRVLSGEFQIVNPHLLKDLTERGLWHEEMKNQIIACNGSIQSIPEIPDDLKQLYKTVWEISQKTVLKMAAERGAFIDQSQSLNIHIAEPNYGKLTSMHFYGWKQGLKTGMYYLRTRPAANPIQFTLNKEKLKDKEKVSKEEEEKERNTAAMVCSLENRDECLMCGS
Sequence of RNR (RNR1:RNR2) (P31350 whole entry): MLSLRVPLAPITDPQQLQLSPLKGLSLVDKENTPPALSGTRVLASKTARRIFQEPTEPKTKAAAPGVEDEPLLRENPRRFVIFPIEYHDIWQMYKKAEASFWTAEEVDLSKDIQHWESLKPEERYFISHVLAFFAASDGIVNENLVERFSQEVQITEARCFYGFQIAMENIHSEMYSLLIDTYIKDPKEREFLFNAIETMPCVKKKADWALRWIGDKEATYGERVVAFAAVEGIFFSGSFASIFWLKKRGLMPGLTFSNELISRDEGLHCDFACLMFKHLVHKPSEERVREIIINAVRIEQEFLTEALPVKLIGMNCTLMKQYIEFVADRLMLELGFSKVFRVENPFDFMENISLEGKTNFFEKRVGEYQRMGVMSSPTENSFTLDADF

| IC50 ([1]; Homo sapiens, COLO 320DM, 16 h) | IC50 [2] | IC50 [1] | Structure (SMILES) |
| --- | --- | --- | --- |
|  | ≤ 0.1 µM | 10 to 30 µM | Cc1ccc(F)c([C@@H](C)[C@H](NS(=O)(=O)c2ccc(Cl)c3c2OCC[C@@]3(C)O)c2nn[nH]n2)c1C (single isomer, unassigned) [Example 4] |
| 50 to 100 µM | 0.1 to 1 µM |  | COc1cc(C#N)ccc1S(=O)(=O)N[C@H](c1nn[nH]n1)[C@H](C)c1c(F)ccc(C)c1C [Example 64, 4-cyano-N-((1S,2R)-2-(6-fluoro-2,3-dimethylphenyl)-1-(2H-tetrazol-5-yl)propyl)-2-methoxybenzenesulfonamide] |
| 10 to 30 µM | ≤ 0.1 µM |  | COc1c(S(=O)(=O)N[C@H](c2nn[nH]n2)[C@H](C)c2c(F)ccc(C)c2C)ccc(Cl)c1[C@H](C)O (racemic) [Example 16, rac-4-chloro-N-((1R,2S)-2-(6-fluoro-2,3-dimethyphenyl)-1-(2H-tetrazol-5-yl)propyl)-3-((R)-1-hydroxyethyl)-2-methoxybenzenesulfonamide] |

More lines, now with the values behind:

| Structure (SMILES) | IC50 ([1]; Homo sapiens, COLO 320DM, 16 h) | IC50 [2] | IC50 [1] |
| --- | --- | --- | --- |
| CNC(=O)c1cc(Cl)ccc1S(=O)(=O)N[C@H](c1nn[nH]n1)[C@H](C)c1c(F)ccc(C)c1C [Example 76, 5-chloro-2-(N-((1S,2R)-2-(6-fluoro-2,3-dimethylphenyl)-1-(2H-tetrazol-5-yl)propyl)sulfamoyl)-N-methylbenzamide] | 50 to 100 µM | 0.1 to 1 µM |  |
| Cc1ccc(F)c([C@@H](C)[C@H](NS(=O)(=O)c2ccc(Cl)c(C(F)(F)C(=O)N(C)C)c2)c2nn[nH]n2)c1C [Example 72, 2-(2-chloro-5-(N-((1S,2R)-2-(6-fluoro-2,3-dimethylphenyl)-1-(2H-tetrazol-5-yl)propyl)sulfamoyl)phenyl)-2,2-difluoro-N,N-dimethylacetamide] | 50 to 100 µM | 0.1 to 1 µM |  |
| Cc1ccc(F)c([C@@H](C)[C@H](NS(=O)(=O)c2ccc(Cl)cc2C(F)(F)F)c2nn[nH]n2)c1C [Example 21, 4-chloro-N-((1S,2R)-2-(6-fluoro-2,3-dimethylphenyl)-1-(2H-tetrazol-5-yl)propyl)-2-(trifluoromethyl)benzenesulfonamide] | 50 to 100 µM | 0.1 to 1 µM |  |
| Cc1ccc(F)c([C@@H](C)[C@H](NS(=O)(=O)c2ccc(Cl)cc2N2CCCCC2)c2nn[nH]n2)c1C [Example 80, 4-chloro-N-((1S,2R)-2-(6-fluoro-2,3-dimethylphenyl)-1-(2H-tetrazol-5-yl)propyl)-2-(piperidin-1-yl)benzensulfonamide] | 30 to 50 µM | 0.1 to 1 µM |  |
| Cc1ccc(F)c([C@@H](C)[C@H](NS(=O)(=O)c2cn(C)nc2C)c2nn[nH]n2)c1C [Example 43] | 50 to 100 µM | 1 to 5 µM |  |
